Each structure is given as a SMILES string.

Data set [1] can be described thus: Half-life measurements in human plasma (HPLC-UV). Format: in vitro ADME. Conditions: human, plasma, 37° C., hydrolysis through two potential pathways, read-out: hydrolysis half-life in human plasma (converted). How it is done: To evaluate the hydrolysis rates of emtricitabine compounds 9-16, HPLC coupled with UV detection was used with the following method (0% to 100% acetonitrile in Et3NHOAc (50 mM, pH 8) gradient) over 10 minutes at a flow rate of 3 mL min^−1, held at 100% acetonitrile for 3 minutes, ramped down to 5% acetonitrile over 0.2 minutes and then held for 2.8 minutes. Male human plasma (Bioreclamation) or female human skeletal muscle S9 (7.96 mg/mL, Bioreclamation) was pre-incubated at 37° C. for 5 minutes. Compounds 9-16 (1 mM) were added and the reaction was incubated at 37° C. […] The supernatant was diluted 10 fold into Tris buffer (30 mM, pH 7.4) and injected onto the HPLC for analysis.
To evaluate the hydrolysis rates of emtricitabine trimethyl lock prodrugs, HPLC coupled with UV detection was used with the following method (0% to 100% acetonitrile in Et3NHOAc (50 mM, pH 8) gradient) over 10 minutes at a flow rate of 3 mL min^−1, held at 100% acetonitrile for 3 minutes, ramped down to 5% acetonitrile over 0.2 minutes and then held for 2.8 minutes. Human plasma (Bioreclamation) or human skeletal muscle S9 (7.96 mg/mL, Bioreclamation) was pre-incubated at 37° C. for 5 minutes. Emtricitabine trimethyl lock compound 25 (1 mM) was added and the reaction was incubated at 37° C. […] The supernatant was diluted in Tris buffer (100 mM, pH 7.4) and injected onto the HPLC for analysis. […]

Data set [2] is described as follows: Kinetic analysis of 5′-acyloxy/alkoxycarbonyl prodrug hydrolysis in human liver S9 (HPLC-UV). Format: in vitro ADME. Conditions: for Km: both sexes, human, pooled human liver S9, pH 7.4, 17: 5′-acetoxy hydrolysis, 1.0 mg/mL S9, 5: 5′-pentoxycarbonyl hydrolysis, 3.0 mg/mL S9, 37° C.; for Km / Intrinsic Clearance / Vmax: conversion to compound 13; for Intrinsic Clearance / Vmax: 17: 1.0 mg/mL S9, 5: 3.0 mg/mL S9; for half-lives in human liver S9: FIG. 7. As for the experimental part: A reaction mixture containing Tris buffer (30 mM, pH 7.4) and mixed pooled gender liver S9 (1 mg/mL, 3.0 mg/mL, or 4.0 mg/mL) are pre-incubated at 37° C. for 5 minutes. To the reaction mixtures is added compound 17 which initiates the hydrolysis reaction (concentrations of compound 17 ranging from 200 μM to 10 mM). […] The supernatant was diluted into Tris buffer (30 mM, pH 7.4) to yield samples with concentrations appropriate for analysis. The samples were analyzed by HPLC with UV detection using the following method (0% to 100% acetonitrile in Et3NHOAc (50 mM, pH 8) gradient) over 10 minutes at a flow rate of 3 mL min^−1, held at 100% acetonitrile for 3 minutes, ramped down to 5% acetonitrile over 0.2 minutes and then held for 2.8 minutes.
Kinetic analysis data for the conversion of compound 17 to compound 13 via 5′-acetoxy hydrolysis is illustrated in FIG. 5. The hydrolysis was performed under conditions in which the pentyl carbamate group of compound 17 is stable in 1.0 mg/mL pooled mixed gender human liver S9. It was observed that the intrinsic clearance for the 5′-acetoxy hydrolysis is greater than that for the carbamate group hydrolysis.
Kinetic analysis data for the conversion of compound 5 to compound 13 via 5′-pentoxycarbonyl hydrolysis is illustrated in FIG. 6 (concentrations of compound 5 ranging from 200 μM to 10 mM). The hydrolysis was performed under conditions in which the pentyl carbamate group is stable in 3.0 mg/mL pooled mixed gender human liver S9. It was observed that the intrinsic clearance for 5′-pentoxycarbonyl hydrolysis is greater than that for carbamate group hydrolysis but reduced when compared to the intrinsic clearance of the 5′-acetoxy hydrolysis. Kinetic analysis data for the conversion of compound 17 to compound 13 via 5′-acetoxy hydrolysis and the conversion of compound 5 to compound 13 via 5′-pentoxycarbonyl hydrolysis is presented in Table 1 below.
Kinetic analysis data for compounds 20 and 21 in human liver S9 was generated in accordance with the general procedure described above.

Data set [3] in a line: Prodrug hydrolysis in rat plasma. Format: in vitro ADME. The settings on record: 37° C., depletion of starting material, read-out: Rat Plasma t1/2. How it is done: (§1) Reaction mixtures containing either mouse liver S9 (20.8 mg/mL), mouse plasma, rat liver S9 (1 mg/mL) and phosphate buffer (100 mM, pH 7.4), rat plasma, human liver S9 (1.0 mg/mL) and phosphate buffer (100 mM, pH 7.4) or human plasma were pre-incubated at 37° C. for 5 minutes. Reactions were then initiated by addition of compounds 4, 8 or 16 (1 mM in mouse, 0.5 mM in rat and human). […] The samples were analyzed by HPLC with UV detection and the resulting hydrolysis data can be seen in FIG. 12.
(§2) In all cases, the half-lives for compound 4 are shorter than that of compound 8. […] In all cases, the half-life indicates the depletion of starting material compounds. […] In human compartments, only carbonate cleavage is observed.

Data set [4] is described as follows: Prodrug hydrolysis in rat liver S9. The class given is in vitro ADME. Conditions: pH 7.4, rat liver S9 1 mg/mL, 37° C., depletion of starting material, read-out: Rat Liver t1/2. How it is done:
as §1, §2

Data set [5] is described as follows: Prodrug hydrolysis in human plasma. Conditions: 37° C., depletion of starting material, read-out: Human Plasma t1/2. Format: in vitro ADME. As for the experimental part:
as §1, §2

Data set [6] can be described thus: Prodrug hydrolysis in human liver S9. The class given is in vitro ADME. Conditions: pH 7.4, human liver S9 1.0 mg/mL, 37° C., depletion of starting material, read-out: Human Liver t1/2. As for the experimental part: as §1, §2
The subject of another data set is CD4+ T cells. The data set can be described thus: Viability staining (Zombie Red) in single-round infectivity assay. How it is done:
Peripheral blood mononuclear cells were isolated from healthy blood donors using Hypaque-Ficoll gradient centrifugation. CD4+ T cells were selected by magnetic beads (Miltenyi) and activated using anti-CD3 and anti-CD28 antibodies. Activated cells were seeded onto a 96-well plate at a concentration of 1×10^5 cells/well in RPMI1640 supplemented with 10% FBS, cytokine-rich supernatant, and 50% heat-inactivated human serum. Test compounds were added at this step and maintained throughout the culture. Cells were incubated at 37° C. for 21 hours. Pseudotype (GFP-tagged) HIV was then added to the culture via spinoculation and incubated for 3 days. Cells were then washed and stained with Zombie Red viability stain. Infectivity was quantified using flow cytometry.

A further data set relates to CYP enzymes. The data set can be described thus: Cytochrome P450 activity in human liver microsomes. Conditions: 1 mM, 2.0 mg/mL pooled mixed gender human liver microsomes. How it is done:
(§3) Reaction mixtures containing phosphate buffer (100 mM, pH 7.4), mixed pooled gender human liver microsomes (2.0 mg/mL), NADP+ (1 mM), glucose-6-phosphate (5 mM), and glucose-6-phosphate dehydrogenase (1.5 Unit/mL) were pre-incubated at 37° C. for 5 minutes. The reactions were then initiated via the addition of emtricitabine or compound 13 (1 mM). After incubation at 37° C., aliquots were taken at each time point and quenched in two volumes of ice-cold methanol. The quenched aliquots were then centrifuged at 14000 rpm for 4 minutes. The supernatant was then diluted into phosphate buffer (100 mM, pH 7.4) to yield samples with concentrations suitable for analysis. The samples were analyzed by HPLC with UV detection using the following method (0% to 100% acetonitrile in Et3NHOAc (50 mM, pH 8) gradient) over 10 minutes at a flow rate of 3 mL min^−1, held at 100% acetonitrile for 3 minutes, ramped down to 5% acetonitrile over 0.2 minutes and then held for 2.8 minutes.
Background: Microsomes from liver hold many membrane-bound enzymes, among them those of drug oxidation.

In another data set the test system is UGT enzymes. The experiment in a line: UGT activity in human liver S9. Conditions: 1 mM, human liver S9 2.0 mg/mL, UDPGA 8 mM. How it is done:
as §3, with “S9” for “microsomes”, “MgCl2 (10” for “NADP+ (1”, “UDPGA (8” for “glucose-6-phosphate (5”, “D-saccharic acid-1,4-lactone (2 mM)” for “glucose-6-phosphate dehydrogenase (1.5 Unit/mL)”, “by” for “via”

`CC(=O)Oc1cc(C)cc(C)c1C(C)(C)CC(=O)Nc1ncnc2c1ncn2C[C@@H](C)OCP(=O)(N[C@@H](C)C(=O)OC(C)C)Oc1ccccc1` (stereo partly drawn) [Compound 26, (2S)-isopropyl (((((R)-1-(6-(3-(2-acetoxy-4,6-dimethylphenyl)-3-methylbutanamido)-9H-purin-9-yl)propan-2-yl)oxy)methyl)(phenoxy)phosphoryl)-L-alaninate]: the half-life at 1 mM in data set [1] is 66 min.

For the molecule `CCCCCOC(=O)Nc1nc(=O)n([C@@H]2CS[C@H](COC(C)=O)O2)cc1F` [Compound 17, ((2R,5S)-5-(5-fluoro-2-oxo-4-(((pentyloxy)carbonyl)amino)pyrimidin-1 (2H)-yl)-1,3-oxathiolan-2-yl)methyl acetate], in [2], the Km amounted to 1310 µM, the “Intrinsic Clearance” value stood at 62.05 µL/min/mg and the Vmax is listed as 4877 nmol/h/mg.

As for `CCCCCCCCOC(=O)Nc1nc(=O)n([C@@H]2CS[C@H](COC(C)=O)O2)cc1F` [Compound 20, ((2R,5S)-5-(5-fluoro-4-(((octyloxy)carbonyl)amino)-2-oxopyrimidin-1 (2H)-yl)-1,3-oxathiolan-2-yl)methyl acetate], the “half-lives in human liver S9” value in data set [2] is “comparable half-lives”.

`CCCCCOC(=O)Nc1nc(=O)n([C@@H]2CS[C@H](COC(=O)OCCCCC)O2)cc1F` [Compound 5, pentyl (5-fluoro-2-oxo-1-((2R,5S)-2-((((pentyloxy)carbonyl)oxy)methyl)-1,3-oxathiolan-5-yl)-1,2-dihydropyrimidin-4-yl)carbamate]: in [2], the Km worked out at 600 µM, the “Intrinsic Clearance” value is 26.33 µL/min/mg and the maximum rate (Vmax) was 948 nmol/h/mg.

For `CCCCOC(=O)Nc1nc(=O)n([C@@H]2CS[C@H](COC(=O)OCCCC)O2)cc1F` [Compound 4, butyl (1-((2R,5S)-2-(((butoxycarbonyl)oxy)methyl)-1,3-oxathiolan-5-yl)-5-fluoro-2-oxo-1,2-dihydropyrimidin-4-yl)carbamate], the half-life at 0.5 mM was determined as 5.8 min in [3], 4.6 min in data set [4], 59.2 min in data set [5] and 10.3 min in [6].

For the molecule `CCCCCCCCOC(=O)Nc1nc(=O)n([C@@H]2CS[C@H](COC(=O)C(C)C)O2)cc1F` [Compound 21, ((2R,5S)-5-(5-fluoro-4-(((octyloxy)carbonyl)amino)-2-oxopyrimidin-1 (2H)-yl)-1,3-oxathiolan-2-yl)methyl isobutyrate], the “half-lives in human liver S9” value in data set [2] is recorded as “comparable half-lives”.

Turning to `CCCCCCCCOC(=O)Nc1nc(=O)n([C@@H]2CS[C@H](COC(=O)OCCCCCCCC)O2)cc1F` [Compound 8, octyl (5-fluoro-1-((2R,5S)-2-((((octyloxy)carbonyl)oxy)methyl)-1,3-oxathiolan-5-yl)-2-oxo-1,2-dihydropyrimidin-4-yl)carbamate], the half-life at 0.5 mM in [3] worked out at 16.7 min; in data set [4], 33.3 min; in [5] it was 578 min; in data set [6], 151 min.

In the case of `Nc1nc(=O)n([C@@H]2CS[C@H](CO)O2)cc1F` [Emtricitabine, emtricitabine], the “toxicity on CD4+ T cells (viability staining)” value in the data set on CD4+ T cells is given as “little to no toxicity”. Besides, the “metabolism by CYP enzymes” value with CYP enzymes is “not metabolized”. Further, the “metabolism by UGT enzymes” value with UGT enzymes is “not metabolized”.

Broadly, the Km is the substrate concentration at which the rate is half of its maximum. The term Vmax denotes the rate approached at saturating substrate.

The values are drawn from patent US11498933B2, “Prodrug compositions” (The University of Liverpool, priority 2017, dated 2022).
